Patent US20210137948A1, “TREATMENT OF INFECTIONS CAUSED BY NEISSERIA GONOCOCCUS USING A HALOGENATED SALICYLANILIDE” (priority 2018, published 2021)
Values after ≈ are worked out from the molar mass of the structure shown. Read-outs that look alike come from different tables or passages of the source.

Tests used:
Escherichia coli [1] = conditions: Escherichia coli MMX 102/ATCC 25922, range in parentheses; cited from earlier work
Pseudomonas aeruginosa [2] = conditions: Pseudomonas aeruginosa MMX 103/ATCC 27853, range in parentheses; cited from earlier work
Enterobacter cloacae = assay: Broth microdilution MIC testing; assay type: cell-based; conditions: Enterobacter cloacae MMX 6089, susceptible; for MIC: read-out: Minimal Inhibitory Concentration
Description: (§1) Broth microdilution assay: Mueller Hinton II broth (MHB II, BBL, BD, catalog no. 212322; lot no. 5257869) was used for testing most aerobes.
(§2) MIC values were determined using a broth microdilution procedure described by CLSI, see reference (1). Automated liquid handlers (Multidrop 384, Labsystems, Helsinki, Finland; Biomek 2000 and Biomek FX, Beckman Coulter, Fullerton Calif.) were used to conduct serial dilutions and liquid transfers.
(§3) The wells in Columns 2 through 12 of two standard 96-well microdilution plates (Costar 3795, Corning Inc., Corning, N.Y.) were filled with 150 μL of diluent specific to the compound tested. Three hundred microliters of each comparator and investigational drug solution (40× or 100×) was added to one well in Column 1 of the plates. The Biomek 2000 was used to complete the serial transfers through Column 11. The wells of Column 12 contained no drug and were the organism growth control wells. These panels were the “mother plates.”
(§4) Because drugs were prepared at either 40× or 100×, the “daughter plates” were loaded with 185-188 μL of the appropriate test media for the tested organism, using the Multidrop 384 or by hand. The daughter plates were prepared on the Biomek FX instrument, which transferred 2-5 μL of drug solution from each well of a mother plate to the corresponding well of each daughter plate in a single step. The wells of the daughter plates ultimately contained 185-188 μL of broth appropriate to the organism, 2-5 μL of drug solution, and 10 μL of bacterial inoculum prepared in broth.
(§5) Standardized inoculum of each organism was prepared per CLSI methods, see reference (1). The inoculum for each organism was dispensed into sterile reservoirs divided by length (Beckman Coulter), and the Biomek 2000 was used to inoculate the plates. Daughter plates were placed on the Biomek 2000 work surface in reverse orientation so that inoculation took place from low to high drug concentration. The Biomek 2000 delivered 10 μL of standardized inoculum into each well. This yielded a final cell density in the daughter plates of approximately 5×10^5 CFU/mL.
(§6) Plates were stacked 3 high, covered with a lid on the top plate, placed in plastic bags, and incubated at 35° C. for approximately 18 to 20 hr. Following incubation, the microplates were removed from the incubator and viewed from the bottom using a plate viewer. […] The MIC was read and recorded as the lowest concentration of drug that inhibited visible growth of the organism.

Escherichia coli [3] = assay: Broth microdilution MIC testing; assay type: cell-based; conditions: for MIC: Escherichia coli, read-out: Minimal Inhibitory Concentration
Description: as §1, §2, §3, §4, §5, §6

[4] = test system: Stenotrophomonas maltophila; assay: Broth microdilution MIC testing; assay type: cell-based; conditions: Stenotrophomonas maltophila MMX 4746, susceptible; for MIC: Stenotrophomonas sp. LMG 10879, read-out: Minimal Inhibitory Concentration
Description: as §1, §2, §3, §4, §5, §6

Klebsiella pneumoniae = assay: Broth microdilution MIC testing; assay type: cell-based; conditions: Klebsiella pneumoniae MMX 214/ATCC 13883, susceptible; for MIC: ATCC13883, read-out: Minimal Inhibitory Concentration
Description: as §1, §2, §3, §4, §5, §6

Pseudomonas aeruginosa [5] = assay: Broth microdilution MIC testing; assay type: cell-based; conditions: Pseudomonas aeruginosa MMX 103/ATCC 27853, susceptible, QC; for MIC: ATCC27853, read-out: Minimal Inhibitory Concentration
Description: as §1, §2, §3, §4, §5, §6

Acinetobacter baumannii = assay: Broth microdilution MIC testing; assay type: cell-based; conditions: Acinetobacter baumannii MMX 1630/ATCC 19606, susceptible; for MIC: ATCC19606, read-out: Minimal Inhibitory Concentration
Description: as §1, §2, §3, §4, §5, §6

[6] = test system: N. gonorrhoeae ATCC49226/MMX 683; assay: Agar dilution MIC assay (Example 1); assay type: cell-based, Neisseria gonorrhoeae; conditions: Neisseria gonorrhoeae MMX 683/ATCC 49226, QC
Description: Neisseria gonococcus (N. gonorrhoeae) were assayed using a reference agar dilution method, see reference (2). Drug dilutions and drug-supplemented agar plates were prepared manually. Neisseria gonococcus was grown on Chocolate agar in a CO2 incubator overnight at 35° C. prior to assay. […] The MIC was read per CLSI guidelines, see reference (3).

[7] = Escherichia coli MMX 102/ATCC 25922, QC strain

SMILES	CLSI QC range of MIC (Escherichia coli [1])	CLSI QC range of MIC (Pseudomonas aeruginosa [2])	MIC (Enterobacter cloacae) [µg/mL]	Minimal Inhibitory Concentration (Escherichia coli [3]; [7]) [µg/mL]	Minimal Inhibitory Concentration (Escherichia coli [3]; Escherichia coli MMX 120, acrAB efflux pump knockout) [µg/mL]	MIC (Escherichia coli [3]; ATCC25922) [µg/mL]	MIC (Escherichia coli [3]) [µg/mL]	MIC [4] [µg/mL]	MIC (Klebsiella pneumoniae) [µg/mL]	Minimal Inhibitory Concentration (Klebsiella pneumoniae) [µg/mL]	MIC (Pseudomonas aeruginosa [5]) [µg/mL]	Minimal Inhibitory Concentration (Pseudomonas aeruginosa [5]) [µg/mL]	MIC (Acinetobacter baumannii) [µg/mL]	Minimal Inhibitory Concentration [4] [µg/mL]	Minimal Inhibitory Concentration (Acinetobacter baumannii) [µg/mL]	MIC ([6]; ATCC49226, read-out: Minimal Inhibitory Concentration) [µg/mL]	Minimal Inhibitory Concentration [6] [µg/mL]	Minimal Inhibitory Concentration (Enterobacter cloacae) [µg/mL]
C[C@@H](O)[C@H]1C(=O)N2C(C(=O)O)=C(S[C@@H]3CN[C@H](C(=O)N(C)C)C3)[C@H](C)[C@H]12 [Meropenem]	(0.008-0.06) μg/ml	(0.12-1) μg/ml	0.06 (≈ 0.156 µM)	0.015	0.015	0.015 (≈ 0.0391 µM)	0.015 (≈ 0.0391 µM)	2 (≈ 5.22 µM)	0.03 (≈ 0.0782 µM)	0.03	0.25 (≈ 0.652 µM)	0.25	1 (≈ 2.61 µM)					
CC1=C(C(=O)O)N2C(=O)[C@@H](NC(=O)[C@H](N)c3ccccc3)[C@H]2SC1 [Cephalexin]			> 32			8 (≈ 23 µM)	8 (≈ 23 µM)	> 32	4 (≈ 11.5 µM)		> 32		> 32					
C[C@H]1c2cccc(O)c2C(=O)C2=C(O)[C@]3(O)C(=O)C(C(N)=O)=C(O)[C@@H](N(C)C)[C@@H]3[C@@H](O)[C@@H]21 [Doxycycline]			1 (≈ 2.25 µM)			0.5 (≈ 1.13 µM)	0.25 (≈ 0.563 µM)	0.5 (≈ 1.13 µM)	1 (≈ 2.25 µM)		> 8		0.5 (≈ 1.13 µM)	0.5	0.5			
O=C(O)c1cn(C2CC2)c2cc(N3CCNCC3)c(F)cc2c1=O [Ciprofloxacin]																0.004 (≈ 0.0121 µM)	0.004	
CC(C)(O/N=C(\C(=O)N[C@@H]1C(=O)N2C(C(=O)[O-])=C(C[n+]3ccccc3)CS[C@H]12)c1csc(N)n1)C(=O)O [Ceftazidime]	(0.06-0.5) μg/ml	(1-4) μg/ml	8 (≈ 14.6 µM)			0.25 (≈ 0.457 µM)	0.12 (≈ 0.22 µM)	4 (≈ 7.32 µM)	0.5 (≈ 0.915 µM)		1 (≈ 1.83 µM)		4 (≈ 7.32 µM)					
NCC[C@H](O)C(=O)N[C@@H]1C[C@H](N)[C@@H](O[C@H]2O[C@H](CN)[C@@H](O)[C@H](O)[C@H]2O)[C@H](O)[C@H]1O[C@H]1O[C@H](CO)[C@@H](O)[C@H](N)[C@H]1O [Amikacin]	(0.5-4) μg/ml	(1-4) μg/ml	1 (≈ 1.71 µM)			4 (≈ 6.83 µM)	0.5 (≈ 0.854 µM)	2 (≈ 3.42 µM)	0.5 (≈ 0.854 µM)		2 (≈ 3.42 µM)		16 (≈ 27.3 µM)					
C[C@H]1COc2c(N3CCN(C)CC3)c(F)cc3c(=O)c(C(=O)O)cn1c23 [Levofloxacin]			0.03 (≈ 0.083 µM)	0.015		0.015 (≈ 0.0415 µM)		0.5 (≈ 1.38 µM)	0.03 (≈ 0.083 µM)	0.03	1 (≈ 2.77 µM)		0.5 (≈ 1.38 µM)	0.5	0.5			0.03
